Results as given in PubChem BioAssay (NCI).
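Following 48 hours of exposure in 96-well plates, responses at five concentrations were used to interpolate endpoints linearly. GI50 = concentration required for 50% inhibition of growth. TGI: total growth inhibition.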

Columns and labels:
Assay in all cases: DTP human tumour cell line panel, 48 h
[1] = tested on: 786-0 renal
[2] = tested on: A549 NSCLC
[3] = tested on: ACHN renal
[4] = tested on: CAKI-1 renal
[5] = tested on: CCRF-CEM leukemia
[6] = tested on: COLO 205 colon
[7] = tested on: HL-60(TB) leukemia
[8] = tested on: HOP-62 NSCLC
[9] = tested on: HOP-92 NSCLC
[10] = tested on: IGROV1 ovarian
[11] = tested on: K-562 leukemia
[12] = tested on: M14 melanoma
[13] = tested on: MALME-3M melanoma
[14] = tested on: MCF7 breast
[15] = tested on: MDA-MB-435
[16] = tested on: MOLT-4 leukemia
[17] = tested on: NCI-H23 lung
[18] = tested on: NCI-H460 lung
[19] = tested on: NCI/ADR-RES ovarian
[20] = tested on: OVCAR-4 ovarian
[21] = tested on: OVCAR-5 ovarian
[22] = tested on: RPMI-8226 leukemia
[23] = tested on: RXF 393 renal
[24] = tested on: SF-268 CNS
[25] = tested on: SK-MEL-2 melanoma
[26] = tested on: SK-MEL-28 melanoma
[27] = tested on: SK-MEL-5 melanoma
[28] = tested on: SK-OV-3 ovarian
[29] = tested on: SNB-75 CNS
[30] = tested on: SR leukemia
[31] = tested on: SW-620 colon
[32] = tested on: T-47D breast
[33] = tested on: U251 CNS
[34] = tested on: UACC-62 melanoma
[35] = tested on: A498 renal
[36] = tested on: BT-549 breast
[37] = tested on: DU-145 prostate
[38] = tested on: EKVX NSCLC
[39] = tested on: HCC-2998 colon
[40] = tested on: HCT-116 colon
[41] = tested on: HCT-15 colon
[42] = tested on: HS 578T breast
[43] = tested on: HT29 colon
[44] = tested on: KM12 colon
[45] = tested on: LOX IMVI melanoma
[46] = tested on: MDA-MB-231 breast
[47] = tested on: NCI-H226 lung
[48] = tested on: NCI-H522 lung
[49] = tested on: OVCAR-3 ovarian
[50] = tested on: OVCAR-8 ovarian
[51] = tested on: PC-3 prostate
[52] = tested on: SF-295 CNS
[53] = tested on: SF-539 CNS
[54] = tested on: SN12C renal
[55] = tested on: SNB-19 CNS
[56] = tested on: TK-10 renal
[57] = tested on: UACC-257 melanoma
[58] = tested on: UO-31 renal

C=CCNc1nc(C#N)c(N)s1
TGI [1]: > 10000 nM | TGI [2]: > 10000 nM | TGI [3]: > 10000 nM | TGI [4]: > 10000 nM | TGI [5]: > 10000 nM | TGI [6]: > 10000 nM | TGI [7]: > 10000 nM | TGI [8]: > 10000 nM | TGI [9]: > 10000 nM | TGI [10]: > 10000 nM | TGI [11]: > 10000 nM | TGI [12]: > 10000 nM | TGI [13]: > 10000 nM | TGI [14]: > 10000 nM | TGI [15]: > 10000 nM | TGI [16]: > 10000 nM | TGI [17]: > 10000 nM | TGI [18]: > 10000 nM | TGI [19]: > 10000 nM | TGI [20]: > 10000 nM | TGI [21]: > 10000 nM | TGI [22]: > 10000 nM | TGI [23]: > 10000 nM | TGI [24]: > 10000 nM | TGI [25]: > 10000 nM | TGI [26]: > 10000 nM | TGI [27]: > 10000 nM | TGI [28]: > 10000 nM | TGI [29]: > 10000 nM | TGI [30]: > 10000 nM | TGI [31]: > 10000 nM | TGI [32]: > 10000 nM | TGI [33]: > 10000 nM | TGI [34]: > 10000 nM

Cn1cc(-c2ccc3occ(-c4cccc(-c5ccncc5)c4)c3n2)cn1
GI50 [1]: 1250 nM | TGI [1]: > 100000 nM | GI50 [35]: 159 nM | TGI [35]: 832 nM | GI50 [2]: 714 nM | TGI [2]: > 100000 nM | GI50 [3]: 800 nM | TGI [3]: > 100000 nM | GI50 [36]: 1220 nM | TGI [36]: 17100 nM | GI50 [4]: 380 nM | TGI [4]: > 100000 nM | GI50 [5]: 923 nM | TGI [5]: > 100000 nM | GI50 [6]: 546 nM | TGI [6]: > 100000 nM | GI50 [37]: 2650 nM | TGI [37]: > 100000 nM | GI50 [38]: 1250 nM | TGI [38]: > 100000 nM | GI50 [39]: 1740 nM | TGI [39]: > 100000 nM | GI50 [40]: 382 nM | TGI [40]: > 100000 nM | GI50 [41]: 285 nM | TGI [41]: > 100000 nM | GI50 [8]: 815 nM | TGI [8]: > 100000 nM | GI50 [9]: 2760 nM | TGI [9]: > 100000 nM | GI50 [42]: 377 nM | TGI [42]: 6180 nM | GI50 [43]: 356 nM | TGI [43]: > 100000 nM | GI50 [10]: 592 nM | TGI [10]: > 100000 nM | GI50 [11]: 284 nM | TGI [11]: > 100000 nM | GI50 [44]: 358 nM | TGI [44]: > 100000 nM | GI50 [45]: 564 nM | TGI [45]: > 100000 nM | GI50 [12]: 457 nM | TGI [12]: > 100000 nM | GI50 [13]: 1190 nM | TGI [13]: > 100000 nM | GI50 [14]: 419 nM | TGI [14]: > 100000 nM | GI50 [46]: 1620 nM | TGI [46]: > 100000 nM | GI50 [15]: 176 nM | TGI [15]: 525 nM | GI50 [16]: 582 nM | TGI [16]: > 100000 nM | GI50 [47]: 1500 nM | TGI [47]: > 100000 nM | GI50 [17]: 1260 nM | TGI [17]: > 100000 nM | GI50 [18]: 381 nM | TGI [18]: > 100000 nM | GI50 [48]: 594 nM | TGI [48]: 12100 nM | GI50 [19]: 368 nM | TGI [19]: > 100000 nM | GI50 [49]: 479 nM | TGI [49]: > 100000 nM | GI50 [20]: 2700 nM | TGI [20]: > 100000 nM | GI50 [21]: 3960 nM | TGI [21]: > 100000 nM | GI50 [50]: 1310 nM | TGI [50]: > 100000 nM | GI50 [51]: 961 nM | TGI [51]: > 100000 nM | GI50 [23]: 661 nM | TGI [23]: 4440 nM | GI50 [24]: 1460 nM | TGI [24]: > 100000 nM | GI50 [52]: 809 nM | TGI [52]: > 100000 nM | GI50 [53]: 734 nM | TGI [53]: 5540 nM | GI50 [25]: 758 nM | TGI [25]: > 100000 nM | GI50 [26]: 1770 nM | TGI [26]: > 100000 nM | GI50 [27]: 406 nM | TGI [27]: 1630 nM | GI50 [28]: 1820 nM | TGI [28]: > 100000 nM | GI50 [54]: 1320 nM | TGI [54]: > 100000 nM | GI50 [55]: 1210 nM | TGI [55]: > 100000 nM | GI50 [29]: 404 nM | TGI [29]: 13400 nM | GI50 [30]: 230 nM | TGI [30]: > 100000 nM | GI50 [31]: 435 nM | TGI [31]: > 100000 nM | GI50 [56]: 2100 nM | TGI [56]: > 100000 nM | GI50 [33]: 601 nM | TGI [33]: > 100000 nM | GI50 [57]: 2600 nM | TGI [57]: > 100000 nM | GI50 [34]: 478 nM | TGI [34]: > 100000 nM | GI50 [58]: 1460 nM | TGI [58]: > 100000 nM

CN(C)CC(=O)Nc1ccc(Cn2nnc3c2C(=O)c2nnn(Cc4ccc(NC(=O)CN(C)C)cc4)c2C3=O)cc1
GI50 [35]: 1070 nM | TGI [35]: 2290 nM | GI50 [3]: 335 nM | TGI [3]: 1230 nM | GI50 [4]: 2590 nM | TGI [4]: > 100000 nM | GI50 [5]: 204 nM | TGI [5]: 747 nM | GI50 [6]: 87 nM | TGI [6]: 253 nM | GI50 [37]: 175 nM | TGI [37]: 337 nM | GI50 [39]: 162 nM | TGI [39]: 370 nM | GI50 [40]: 84.3 nM | TGI [40]: 275 nM | GI50 [7]: 74 nM | TGI [7]: 500 nM | GI50 [42]: 337 nM | TGI [42]: 2060 nM | GI50 [11]: 293 nM | TGI [11]: > 100000 nM | GI50 [12]: 140 nM | TGI [12]: 284 nM | GI50 [13]: 115 nM | TGI [13]: 266 nM | GI50 [15]: 70.8 nM | TGI [15]: 198 nM | GI50 [47]: 209 nM | TGI [47]: 444 nM | GI50 [17]: 192 nM | TGI [17]: 488 nM | GI50 [18]: 167 nM | TGI [18]: 1200 nM | GI50 [19]: > 100000 nM | TGI [19]: > 100000 nM | GI50 [49]: 31.8 nM | TGI [49]: 132 nM | GI50 [20]: 47.3 nM | TGI [20]: 179 nM | GI50 [21]: 234 nM | TGI [21]: 578 nM | GI50 [50]: 228 nM | TGI [50]: 679 nM | GI50 [51]: 253 nM | TGI [51]: 825 nM | GI50 [22]: 225 nM | TGI [22]: 783 nM | GI50 [53]: 197 nM | TGI [53]: 502 nM | GI50 [27]: 151 nM | TGI [27]: 286 nM | GI50 [28]: 94.9 nM | TGI [28]: 222 nM | GI50 [29]: 172 nM | TGI [29]: 342 nM | GI50 [32]: 166 nM | TGI [32]: 449 nM | GI50 [56]: 2860 nM | TGI [56]: 7580 nM | GI50 [33]: 183 nM | TGI [33]: 361 nM | GI50 [57]: 172 nM | TGI [57]: 339 nM | GI50 [34]: 201 nM | TGI [34]: 432 nM

N#Cc1cccc(CSc2ncnc3nc[nH]c23)c1
GI50 [5]: 61800 nM | GI50 [37]: 73600 nM | GI50 [9]: 16500 nM | TGI [9]: 97500 nM | GI50 [42]: 64200 nM | GI50 [11]: 38200 nM | GI50 [15]: 89800 nM | GI50 [16]: 85200 nM | GI50 [18]: 74000 nM | GI50 [19]: 27600 nM | TGI [19]: 80800 nM | GI50 [22]: 40400 nM | GI50 [23]: 32800 nM | GI50 [27]: 89500 nM | GI50 [54]: 91000 nM | GI50 [29]: 23700 nM | TGI [29]: 87700 nM | GI50 [30]: 38900 nM | GI50 [32]: 56000 nM | GI50 [56]: 99200 nM | GI50 [34]: 75700 nM | GI50 [58]: 71900 nM
